# The source made the active and inactive calls. No cut-off for these calls is given here.
# Tests used:
# MDA-MB-231 [1] = test: Downregulation of survivin protein expression in human MDA-MB-231 cells at 20 uM incubated for 72 hrs by Western blot analysis; type: functional, cell-based
# MDA-MB-231 [2] = test: Induction of ROS generation in human MDA-MB-231 cells assessed as increase in ROS level at 20 uM incubated for 12 hrs by […] based assay; type: functional, cell-based
# [3] = biological target: Baculoviral IAP repeat-containing protein 5 (Homo sapiens) (UniProt O15392); test: Inhibition of survivin in human MDA-MB-231 cells assessed as reduction in survivin mRNA expression measured after 72 hrs by qPCR analysis; type: cell-based
# [4] = biological target: Baculoviral IAP repeat-containing protein 5 (Homo sapiens) (UniProt O15392); test: Inhibition of survivin in human BT-20 cells assessed as reduction in survivin mRNA expression measured after 72 hrs by qPCR analysis; type: cell-based
# [5] = biological target: Baculoviral IAP repeat-containing protein 5 (Homo sapiens) (UniProt O15392); test: Inhibition of survivin in human MDA-MB-453 cells assessed as reduction in survivin mRNA expression measured after 72 hrs by qPCR analysis; type: cell-based
# MDA-MB-231 [6] = test: Downregulation of survivin protein expression in human MDA-MB-231 cells at 1 mM incubated for 72 hrs by Western blot analysis; type: functional, cell-based
# MDA-MB-231 [7] = test: Induction of ROS generation in human MDA-MB-231 cells assessed as increase in ROS level at 1 mM incubated for 12 hrs by […] based assay; type: functional, cell-based
# MCF-10A = test: Cytotoxicity against human MCF-10A cells at 200 uM; type: cell-based
# Sequence of Baculoviral IAP repeat-containing protein 5 (Homo sapiens) (O15392 whole entry): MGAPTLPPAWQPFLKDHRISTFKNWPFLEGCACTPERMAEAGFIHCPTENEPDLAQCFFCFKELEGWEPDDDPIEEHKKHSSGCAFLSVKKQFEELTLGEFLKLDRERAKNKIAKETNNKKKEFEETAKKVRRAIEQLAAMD
SMILES,Activity (MDA-MB-231 [1]),Activity (MDA-MB-231 [2]),inhibition [3],inhibition [4],inhibition [5],Activity (MDA-MB-231 [6]),Activity (MDA-MB-231 [7]),Activity (MCF-10A)
CC1=CC(=O)c2ccccc2C1=O,Active,Active,Active,Active,Active,,,
CCCCS(=N)(=O)CCC(N)C(=O)O (stereo unspecified) [BUTHIONINE SULFOXIMINE],,,Active,Active,Active,Active,Active,Non-Toxic

# Reference: ChEMBL document CHEMBL4732022, “Generation of reactive oxygen species is the primary mode of action and cause of survivin suppression by sepantronium bromide (YM155)” (RSC Med Chem, 2021)
